Measurements as given in patent US20250263650A1, “FUNGUS AND MICROBIAL AGENT FOR TREATING MERCURY CONTAMINATION, USE THEREOF, MERCURY REMOVAL METHOD, AND METHOD FOR I[…] CAPABLE OF TREATING MERCURY CONTAMINATION” (ZHEJIANG UNIVERSITY, priority 2021, published 2025).

Test system: Zea mays L. seeds
Assay: Tolerance of Zea mays L. to methylmercury and divalent mercury (seed germination in soil)
Assay type: in vivo
Description: Methylmercury was added to the soil, where five concentrations of 0 μg/kg, 2.5 μg/kg, 5 μg/kg, 7.5 μg/kg, and 10 μg/kg were set. Divalent mercury was added to the soil, where five concentrations of 0 mg/kg, 20 mg/kg, 30 mg/kg, 40 mg/kg, and 50 mg/kg were set. The soil was placed in a cultivation vessel (with a height of 14 cm and a diameter of 7 cm).
Seed disinfection and cultivation: Zea mays L. seeds were disinfected for 5 min in 1% sodium hypochlorite and then washed three times with sterile water (1 min each time), disinfected for 10 min with 15% H2O2 and then washed three times with sterile water (1 min each time), and then placed in a 2% water agar medium and vernalized overnight at 4° C. Then, the pretreated seeds were sown into the soil, and 10 P. purpureum seeds or 5 Zea mays L. seeds were sown in each vessel.

Compound: [CH3][Hg][Cl] [methylmercury]
- germination rate of the Zea mays L. seeds (soil with 2.5 μg/kg methylmercury): 100%
- germination rate of the Zea mays L. seeds (soil with 10 μg/kg methylmercury): 80%

Compound: [Hg+2] [divalent mercury]
- germination rate of the Zea mays L. seeds (soil with 20 mg/kg divalent mercury): 100%
- germination rate of the Zea mays L. seeds (soil with 30 mg/kg divalent mercury): 80%
- germination rate of the Zea mays L. seeds (soil with 40 mg/kg divalent mercury): 60%
